For four compounds, IC50 results are on record in ChEMBL document CHEMBL3886673, “Tetracyclic CDK9 kinase inhibitors” (2016).

The target of the assay is Cyclin-dependent kinase 9 (Homo sapiens, UniProt P50750). As to the kind of experiment: LANCE ULight TR-FRET Kinase Assay : CDK9 enzyme activities were measured using LANCE ULight TR-FRET kinase assay reagents (PerkinElmer, Waltham, Mass.). Compounds were diluted in 100% DMSO then diluted with 1:10 in serine/threonine kinase assay buffer containing 20 mM HEPES, 10 mM MgCl2, 100 mM Na3VO4, and 0.0075% Triton X-100. Equal volume of the compound dilutions was added to a final reaction mixture containing LANCE detection buffer (PerkinElmer CR97-100), 100 nM ULight MBP (PerkinElmer TRF0109M), 1000 μM ATP, and CDK9/Cyclin T1 (Carna Biosciences 04-110). The kinase reaction was carried out for 1 hour before addition of stopping buffer to a final of 20 mM EDTA and 0.5 nM of LANCE Ultra Europium anti-phospho-MBP antibody (PerkinElmer TRF0201M) in LANCE detection buffer. The reaction was incubated for 1 hour and the signal was read in Envision in TR-FRET mode (excitation at 320 nm and emission at 615/665 nm).
Sequence of Cyclin-dependent kinase 9 (P50750 whole entry): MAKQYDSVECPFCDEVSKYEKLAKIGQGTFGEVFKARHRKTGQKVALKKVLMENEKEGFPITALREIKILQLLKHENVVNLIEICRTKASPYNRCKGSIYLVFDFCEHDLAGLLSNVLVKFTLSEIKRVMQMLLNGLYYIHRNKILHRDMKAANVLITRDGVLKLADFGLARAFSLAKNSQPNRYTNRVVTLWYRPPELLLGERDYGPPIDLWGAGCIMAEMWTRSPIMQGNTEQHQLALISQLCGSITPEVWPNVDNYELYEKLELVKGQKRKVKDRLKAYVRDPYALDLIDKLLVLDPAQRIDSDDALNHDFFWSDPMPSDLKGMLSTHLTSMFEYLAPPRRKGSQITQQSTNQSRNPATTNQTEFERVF

Turning to `CN(CCO)C(=O)CN1CC=C(c2[nH]c3ncc(F)c4c3c2CN(C)c2ccc(F)cc2-4)CC1`, the IC50 was 0.1 µM.
As to `CN1Cc2c(C3=CCN(C(=O)OC(C)(C)C)CC3)[nH]c3nccc(c23)-c2cc(F)ccc21`, the IC50 was 0.23 µM.
As for `CNC(=O)N1CC=C(c2[nH]c3nccc4c3c2CN(C)c2ccc(F)cc2-4)CC1`, the IC50 worked out at 0.03 µM.
The figure for `CN1Cc2c(C3=CCN(S(C)(=O)=O)CC3)[nH]c3ncc(F)c(c23)-c2cc(F)ccc21` is 0.038 µM.

What is called IC50 is the concentration that gives 50% inhibition.
